# According to patent US20250361241A1, “HPK1 INHIBITOR AND MEDICAL USE THEREOF” (Betta Pharmaceuticals Co., Ltd., priority 2022, published 2025):
# How the values were obtained:
# [1] = tested on: human peripheral blood mononuclear cells; assay: Detection of IFN-γ secretion in human peripheral blood mononuclear cells (anti-CD3/CD28 beads, ELISA); format: cell-based; settings: for Maximum induction factor: IFN-γ secretion, human PBMC; for EC3x: concentration for IFN-γ secretion of human PBMC to reach 3 times the baseline, 3 days
# Description: Pharmacological Experiment 4: Detection of IFN-γ Secretion in Human Peripheral Blood Monocytes
# • (1) Take human peripheral blood mononuclear cells frozen in liquid nitrogen, thaw in a 37° C. water bath, add 5 mL of preheated RPMI-1640 complete medium (containing 10% fetal bovine serum and penicillin/streptomycin), centrifuge at 500 g for 10 minutes, and discard the supernatant; • (2) Resuspend the cells in RPMI-1640 complete medium, adjust the density to 5×10^6 cells/mL, inoculate in a low-adhesion 6-well plate (Corning, 3471), and culture at 37° C. for 2 days; • (3) Collect cultured human peripheral blood mononuclear cells, centrifuge at 500 g for 10 min, and discard the supernatant; • (4) Resuspend the cells in RPMI-1640 complete medium, adjust the density to 1×10^6 cells/mL, and inoculate them in a round-bottom 96-well plate (Jet Biofil, TCP-002-096), with 100 μL per well; • (5) Add 50 μL of the test compound to each well and incubate at 37° C. for 30 min; • (6) Take human anti-CD3/CD28 magnetic beads (Miltenyi, 130-091-441), wash once with RPMI-1640 complete medium, and adjust the density to 0.5×106 beads/mL for later use; • (7) After the compound incubation, 50 μL of anti-human CD3/CD28 magnetic beads were added to each well and cultured at 37° C. for 3 days, • (8) The cell culture supernatant was obtained and the IFN-γ secretion was detected using the Human IFN-gamma DuoSet ELISA kit (R&D, DY285B-05); • (9) The log value of concentration was used as the X-axis and the IFN-γ secretion amount was used as the Y-axis. The “log (agonist) vs. response−variable slope” equation of the analysis software GraphPad Prism 7 was used to fit the dose-effect curve, thereby obtaining the EC3x value and the maximum induction factor of the compound for the secretion of IFN-γ from human peripheral blood mononuclear cells to reach 3 times the baseline.
# Jurkat cells = assay: Jurkat IL-2 secretion detection (anti-CD3/CD28 beads, ELISA); format: cell-based, human; settings: for Maximum induction factor: IL-2 secretion, Jurkat cells; for EC3x: concentration for IL-2 secretion of Jurkat cells to reach 3 times the baseline, 20 h
# Description: Pharmacological Experiment 5: Jurkat IL-2 Secretion Detection
# • (1) Take the cultured Jurkat cells, adjust the density to 1×10^6 cells/mL, and inoculate them in a flat-bottom […] plate (Jet Biofil, TCP011096), with 100 μL per well, • (2) Add 50 μL of the test compound to each well and incubate at 37° C. for 30 min; • (3) Take human anti-CD3/CD28 magnetic beads (Miltenyi, 130-091-441), wash once with RPMI-1640 complete medium, and adjust the density to 4×106 beads/mL for later use; • (4) After the compound incubation, 50 μL of anti-human CD3/CD28 magnetic beads were added to each well and cultured at 37° C. for 20 h, • (5) The cell culture supernatant was obtained and the IL-2 secretion was detected using the Human IL-2 DuoSet ELISA kit (R&D, DY008); • (6) The log value of the concentration was used as the X-axis and the IL-2 secretion was used as the Y-axis. The “log (agonist) vs. response-variable slope” equation of the analysis software GraphPad Prism 7 was used to fit the dose-effect curve, thereby obtaining the […] and the […]
# [2] = PK study of compound in dogs; format: in vivo; settings: Beagle dog
# Description: Pharmacological Experiment 6: PK Study of Compound in Dogs The compound was mixed with a solvent of saline or 10% DMSO/5% Solutol/85% saline or 10% DMSO/10% Solutol/80% saline (specific solvents are shown in the table below), vortexed and sonicated to prepare a clear oral solution. […] The drug concentration was analyzed by LC-MS/MS method, and the pharmacokinetic parameters were calculated using Phoenix WinNolin software (Pharsight, USA).
# [3] = PK study of compound in monkeys; format: in vivo; settings: crab-eating monkey; for IV Plasma Cl_obs: IV 1 mg/kg
# Description: Pharmacological Experiment 7: PK Study of Compound in Monkeys
# The drug concentration was analyzed by LC-MS/MS method, and the pharmacokinetic parameters were calculated using Phoenix WinNolin software (Pharsight, USA).
# [4] = tested on: mouse colon cancer cell CT26; assay: Efficacy in CT26 CDX model mice (subcutaneous homologous transplant tumor); format: in vivo, Balb/c mouse; settings: after 21 days
# Description: Pharmacological Experiment 8; Study on the Efficacy of the Compound in CT26CDX Model Mice […] The first group (G1) was a vehicle control group (10% propylene glycol/5% HS15/85% glucose). The second group (G2) was the control compound D1-administered group. […] Note: PO stands for oral gavage, QD stands for once daily dosing, and BID stands for twice daily dosing. Tumor size and mouse body weight were measured twice a week during the experiment, and the weight of the animals on that day was used as a reference for each drug administration. The tumor size was measured by using a vernier caliper to measure the length (a) and width (b) of the tumor. The tumor volume (TV) was calculated using the following formula: TV=a*b2/2 After 21 days of administration, the tumor growth inhibition rate (TGI) of each administration group is shown in Table 10.
# HPK1 [5] = target: T1, HPK1 (Homo sapiens (Human), UniProt Q92918); assay: HPK1 enzyme activity detection (1 mM ATP system), ADP-Glo with MBP substrate, Pharmacological Experiment 2; format: biochemical
# T1 sequence (Q92918 whole entry, species assumed): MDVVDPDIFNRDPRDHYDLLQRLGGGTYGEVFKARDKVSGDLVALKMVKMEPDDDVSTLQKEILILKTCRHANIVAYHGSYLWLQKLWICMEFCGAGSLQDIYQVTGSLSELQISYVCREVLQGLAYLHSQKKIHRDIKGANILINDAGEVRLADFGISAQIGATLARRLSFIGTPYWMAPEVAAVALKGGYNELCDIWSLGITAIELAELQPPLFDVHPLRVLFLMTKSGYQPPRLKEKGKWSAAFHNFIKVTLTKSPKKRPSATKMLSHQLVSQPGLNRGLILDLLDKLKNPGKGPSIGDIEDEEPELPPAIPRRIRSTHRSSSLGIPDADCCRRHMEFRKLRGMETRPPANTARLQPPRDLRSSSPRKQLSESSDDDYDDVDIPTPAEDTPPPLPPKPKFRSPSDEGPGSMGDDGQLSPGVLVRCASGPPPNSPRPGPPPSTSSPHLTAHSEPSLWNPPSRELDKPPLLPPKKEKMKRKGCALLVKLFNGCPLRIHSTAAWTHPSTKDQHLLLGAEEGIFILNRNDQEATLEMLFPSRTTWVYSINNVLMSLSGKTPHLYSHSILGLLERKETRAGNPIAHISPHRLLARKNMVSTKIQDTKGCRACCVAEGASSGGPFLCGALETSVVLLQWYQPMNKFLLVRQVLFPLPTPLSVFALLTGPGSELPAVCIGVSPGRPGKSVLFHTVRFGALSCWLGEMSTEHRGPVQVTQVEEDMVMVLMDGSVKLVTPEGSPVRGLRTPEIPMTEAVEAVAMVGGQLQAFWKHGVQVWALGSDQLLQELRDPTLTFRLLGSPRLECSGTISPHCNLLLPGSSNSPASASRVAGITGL
# Outline: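 Compound in DMSO preincubated with HPK1 for 15 min at 25 °C, then reaction started with ATP (1 mM system) and MBP substrate for 60 min at 25 °C. ADP formed quantified by ADP-Glo luminescence; IC50 derived from percentage inhibition.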
# GLK = GLK (Homo sapiens (Human), UniProt Q8IVH8); assay: GLK kinase assay (1 mM ATP system), ADP-Glo; format: biochemical
# Sequence of GLK (Q8IVH8 whole entry, species assumed): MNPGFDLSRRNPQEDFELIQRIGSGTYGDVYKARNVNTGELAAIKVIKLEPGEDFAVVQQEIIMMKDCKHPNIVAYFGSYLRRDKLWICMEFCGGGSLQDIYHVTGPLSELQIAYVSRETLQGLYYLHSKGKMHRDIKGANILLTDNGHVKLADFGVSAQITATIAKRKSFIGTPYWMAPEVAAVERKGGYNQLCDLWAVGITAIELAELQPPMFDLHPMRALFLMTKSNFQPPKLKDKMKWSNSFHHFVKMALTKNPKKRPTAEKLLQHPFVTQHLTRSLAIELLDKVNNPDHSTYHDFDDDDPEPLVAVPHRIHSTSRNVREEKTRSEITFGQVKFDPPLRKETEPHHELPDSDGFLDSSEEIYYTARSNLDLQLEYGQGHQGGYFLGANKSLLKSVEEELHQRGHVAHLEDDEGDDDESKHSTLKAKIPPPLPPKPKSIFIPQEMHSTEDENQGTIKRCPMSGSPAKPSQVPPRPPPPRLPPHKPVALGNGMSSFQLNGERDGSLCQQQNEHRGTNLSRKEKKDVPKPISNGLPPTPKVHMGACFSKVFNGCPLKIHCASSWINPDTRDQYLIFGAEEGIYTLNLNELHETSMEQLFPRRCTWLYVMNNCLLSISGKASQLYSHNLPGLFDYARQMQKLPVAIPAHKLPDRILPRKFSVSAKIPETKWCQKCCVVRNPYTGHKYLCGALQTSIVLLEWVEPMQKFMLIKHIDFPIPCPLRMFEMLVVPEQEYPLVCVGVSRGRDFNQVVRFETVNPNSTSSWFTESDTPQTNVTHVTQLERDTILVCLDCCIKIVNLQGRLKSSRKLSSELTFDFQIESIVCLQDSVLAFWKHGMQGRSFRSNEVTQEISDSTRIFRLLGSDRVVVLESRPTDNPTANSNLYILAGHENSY
# Outline: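 GLK kinase reaction with 1 mM ATP and MBP substrate ran 60 min at 25 °C after 15 min preincubation of enzyme with compound. ADP formed was detected by ADP-Glo luminescence; percent inhibition used to derive IC50.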
# HPK1 [6] = target: T1, HPK1; assay: HPK1 enzyme activity detection (1 mM ATP system), ADP-Glo, Pharmacological Experiment 1; format: biochemical
# Description: Pharmacological Experiment 1: HPK1 Enzyme Activity Detection (1 mM ATP System)
# • (1) Take ADP-GloTMKinase Assay Kit (Promega, Cat. No. V9102) to prepare 4× kinase buffer. • (2) Compound gradient dilution: The compound to be tested is diluted 3-fold, and 11 gradient concentrations are set, and each concentration is set for duplicate well detection. Serial dilutions were made in a 384-well plate to the corresponding 100×final concentration solution, and then 0.1 μL was transferred to the 384-well reaction plate for testing using Echo. Transfer 0.1 μL of 100% DMSO to the smallest and largest wells. • (3) Prepare HPK1 enzyme working solution using 4× kinase buffer. • (4) Add 5 μL of HPK1 enzyme working solution to each well and 5 μL of 1× kinase buffer to the smallest well. Centrifuge at 1000 rpm for 1 min and incubate at 25° C. for 15 min. • (5) During the incubation period, prepare the substrate working solution using 4× kinase buffer. • (6) Add 5 μL of substrate working solution containing 1 mM ATP to each well of the reaction plate, centrifuge at 1000 rpm for 1 min, and incubate at 25° C. for 60 min. • (7) At the end of incubation, add 5 μL of ADP Glo reagent to each well. Centrifuge at 1000 rpm for 1 min and incubate at 25° C. for 60 min. • (8) Add 10 μL of detection solution to each well, centrifuge at 1000 rpm for 1 min, and incubate at 25° C. for 60 min. • (9) Read using EnVision.
# Inhibition rate calculation formula:
# [formula] • Vehicle: Reading value of DMSO control well • Blank: No enzyme well reading • Largest well: Reading value of DMSO control well • Minimum well: No enzyme well reading
# The log value of the concentration was used as the X-axis and the percentage inhibition rate was used as the Y-axis. The “log (inhibitor) vs. response—variable slope” of the analysis software GraphPad Prism 5 was used to fit the dose-effect curve to obtain the IC 50 value of the compound's inhibition of kinase binding.
# See Table 1 for the enzymatic IC 50 data of the example compounds on HPK1.
# [7] = column beside IV plasma Cl_obs (IV 1 mg/kg)
# [8] = PO 5 mg/kg, DMSO/Solutol/saline
smiles,measurement,setting,value
"CN(C)Cc1nc(Nc2ccc(-c3cnc4cc(F)ccn34)c3c2C(=O)NC3)ccc1C1CCOCC1 [Compound D1, reference compound]",Maximum induction factor,[1],4.6
same,EC3x,[1],528 nM
same,Maximum induction factor,Jurkat cells,8.1
same,EC3x,Jurkat cells,544 nM
same,AUC,"[2]; plasma, PO 10 mg/kg, saline",396 ng·h/mL
same,half-life,"[2]; plasma, PO 10 mg/kg, saline",3.19 h
same,bioavailability,"[2]; plasma, PO 10 mg/kg, saline, read-out: Bioavailability F %",11.6%
same,IV Plasma Cl_obs,[3],17.6 mL/min/kg
same,half-life,[3]; [7],4.01 h
same,AUC,"[3]; plasma, PO 5 mg/kg",1720 ng·h/mL
same,TGI,[4]; 75 mg/kg PO QD,38%
"CN(C)[C@@H]1CC2(CCOCC2)c2ccc(Nc3ccc(-c4cnc5cc(F)ccn45)c4c3C(=O)NC4)nc21 [Compound 2B, (R)-7-((7-(DIMETHYLAMINO)-2′,3′,5′,6,6′,7-HEXAHYDROSPIRO[CYCLOPENTADIENYL[B]PYRIDINE-54′-PYRAN]-2-YL)AMINO)-4-(7-FLUOROIMIDAZO[1,2-A]PYRIDIN-3-YL)ISOINDOLIN-1-ONE]",IC50,HPK1 [5],1.02 nM
same,IC50,GLK,464 nM
same,Maximum induction factor,[1],7.7
same,EC3x,[1],22 nM
same,Maximum induction factor,Jurkat cells,10.9
same,EC3x,Jurkat cells,90.7 nM
same,Bioavailability F %,[2]; [8],48.4%
same,PO Plasma AUC,[2]; [8],1082 ng·h/mL
same,T1/2,[2]; [8],1.65 h
same,IV Plasma Cl_obs,[3],6.16 mL/min/kg
same,Bioavailability F %,[3]; IV 1 mg/kg and PO 5 mg/kg,50.2%
same,PO Plasma AUC,[3]; PO 5 mg/kg,6302 ng·h/mL
same,T1/2,[3]; [7],8.81 h
same,TGI,[4]; 25 mg/kg PO QD,59%
same,TGI,[4]; 75 mg/kg PO BID,90%
same,TGI,[4]; 75 mg/kg PO QD,70%
"CN(C)C1CC2(CCOCC2)c2ccc(Nc3ccc(-c4cnc5cc(F)ccn45)c4c3C(=O)NC4)nc21 (centres unmarked) [Compound 2, 7-(7-(DIMETHYLAMINO)-2′,3′,5′,6,6′,7-HEXAHYDROSPIRO[CYCLOPENTYL]PYRIDINE-5,4′-PYRAN]-2-YL)AMINO)-4 (7-FLUOROIMIDAZOLE[1,2-A]PYRIDIN-3-YL)ISOINDOL-1-ONE]",IC50,HPK1 [6],7.01 nM
same,IC50,HPK1 [5],11.2 nM
same,IC50,GLK,1170 nM
same,Maximum induction factor,[1],5.9
same,EC3x,[1],69 nM
same,Maximum induction factor,Jurkat cells,10
same,EC3x,Jurkat cells,345 nM
Cc1cc(Nc2ccc(-c3cnc4cc(F)ccn34)c3c2C(=O)NC3)cc2c1C1(CCOCC1)CN(C)C2 [Compound 15],IC50,HPK1 [6],6.14 nM
